Assay results: the NIST ThermoML archive (doi:10.1021/je500271z)
± gives the expanded uncertainty stated by the source.

Assay: osmotic coefficient (dimensionless); mn = molality of the nth substance listed, in mol/kg
Settings: 298.15 K, Liquid, vapor pressure osmometry

Which osmotic coefficient (m1 = 0.2485) does the source give for `[Cl-].[Na+]` [sodium chloride] + O here?
The osmotic coefficient was 0.95 ± 0.02.

What about the osmotic coefficient (m1 = 0.5058) of the same molecule?
The osmotic coefficient was 0.922 ± 0.02.

And the osmotic coefficient (m1 = 1.993)?
Its osmotic coefficient is 0.976 ± 0.02.
